The source of these data is ChEMBL document CHEMBL1126778, “Adenosine A1 antagonists. 3. Structure-activity relationships on amelioration against scopolamine- or N6-((R)-phenylisopropyl)adenosine-induced cognitive disturbance” (J Med Chem, 1993).

Test [1] deals with Rattus norvegicus. The test can be described thus: Retention time in Scopolamine induced avoidance test (performed in rat) for antagonistic activity after peroral administration of 20 mg/kg (n=14). The format is functional, organism-based. Also on record: dose 20 mg/kg.
Test [2] relates to Rattus norvegicus. The test can be described thus: Retention time in Scopolamine induced avoidance test (performed in rat) for antagonistic activity after peroral administration of 1.25 mg/kg. The test is classed as functional, organism-based. More on the design: dose 1.25 mg/kg.
Test [3] has as its system Rattus norvegicus. As to the kind of experiment: Acquisition time in Scopolamine induced avoidance test (performed in rat) for antagonistic activity after peroral administration of 0.02 mg/kg. Particulars: route oral.
Test [4] deals with Rattus norvegicus. As to the kind of experiment: Acquisition time in Scopolamine induced avoidance test (performed in rat) for antagonistic activity after peroral administration of 20 mg/kg. The test is classed as functional. The conditions noted are these: route oral.
Test [5] deals with Rattus norvegicus. The test can be described thus: Retention time in Scopolamine induced avoidance test (performed in rat) for antagonistic activity after p.o. administration of 0.08 mg/kg. The format is functional, organism-based. Also on record: dose 0.08 mg/kg.
Test [6] deals with Rattus norvegicus. As to the kind of experiment: Acquisition time in Scopolamine induced avoidance test (performed in rat) for antagonistic activity after peroral administration of 1.25 mg/kg. The format is functional. The conditions noted are these: route oral.
Test [7] deals with Rattus norvegicus. As to the kind of experiment: Acquisition time in Scopolamine induced avoidance test (performed in rat) for antagonistic activity after p.o. administration of 5 mg/kg. The conditions noted are these: route oral. The format is functional.
Test [8] relates to Rattus norvegicus. As to the kind of experiment: Retention time in Scopolamine induced avoidance test (performed in rat) for antagonistic activity after peroral administration of 0.31 mg/kg (n=15). The format is functional, organism-based. Also on record: dose 0.31 mg/kg.
Test [9] relates to Rattus norvegicus. As to the kind of experiment: Acquisition time in Scopolamine induced avoidance test (performed in rat) for antagonistic activity after peroral administration of 0.31 mg/kg (n=15). The format is functional. Particulars: route oral.
Test [10] concerns Mus musculus. The test can be described thus: Retention time in (R)-PIA) induced avoidance test (performed in mice) for antagonistic activity after p.o. administration of 1.25 mg/kg. The test is classed as functional, organism-based. More on the design: dose 1.25 mg/kg.
The subject of test [11] is Mus musculus. As to the kind of experiment: Acquisition time in (R)-PIA) induced avoidance test (performed in mice) for antagonistic activity after peroral administration of 0.31 mg/kg (n=15). The test is classed as functional. The conditions noted are these: route oral.
The subject of test [12] is Rattus norvegicus. As to the kind of experiment: Retention time in Scopolamine induced avoidance test (performed in rat) for antagonistic activity after peroral administration of 0.02 mg/kg. More on the design: dose 0.02 mg/kg. The format is functional, organism-based.
For test [13], the system named is Mus musculus. As to the kind of experiment: Retention time in (R)-PIA) induced avoidance test (performed in mice) for antagonistic activity after peroral administration of 0.31 mg/kg (n=15) (P<0.005). The format is functional, organism-based. Also on record: dose 0.31 mg/kg.
Test [14] relates to Mus musculus. The test can be described thus: Acquisition time in (R)-PIA) induced avoidance test (performed in mice) for antagonistic activity after peroral administration of 0.08 mg/kg. The test is classed as functional. Particulars: route oral.
Test [15] relates to Rattus norvegicus. The test can be described thus: Retention time in Scopolamine induced avoidance test (performed in […]) for antagonistic activity after peroral administration of 5 mg/kg. The format is functional, organism-based. More on the design: dose 5 mg/kg.
Test [16] has as its system Mus musculus. As to the kind of experiment: Acquisition time in (R)-PIA) induced avoidance test (performed in mice) for antagonistic activity after peroral administration of 5 mg/kg. The conditions noted are these: route oral. The format is functional.
Test [17] relates to Mus musculus. The test can be described thus: Retention time in (R)-PIA) induced avoidance test (performed in mice) for antagonistic activity after peroral administration of 5 mg/kg. Also on record: dose 5 mg/kg. The test is classed as functional, organism-based.
Test [18] deals with Rattus norvegicus. The test can be described thus: Acquisition time in Scopolamine induced avoidance test (performed in rat) for antagonistic activity after p.o. administration of 0.08 mg/kg. The format is functional. Particulars: route oral.
Test [19] concerns Mus musculus. As to the kind of experiment: Retention time in (R)-PIA) induced avoidance test (performed in mice) for antagonistic activity after peroral administration of 0.08 mg/kg. The format is functional, organism-based. Also on record: dose 0.08 mg/kg.
In test [20] the test system is Mus musculus. The test can be described thus: Acquisition time in (R)-PIA) induced avoidance test (performed in mice) for antagonistic activity after p.o. administration of 1.25 mg/kg. The test is classed as functional. Particulars: route oral.
In test [21] the test system is Mus musculus. The test can be described thus: Retention time in (R)-PIA) induced avoidance test (performed in mice) for antagonistic activity after peroral administration of 0.02 mg/kg.
Test [22] deals with Mus musculus. As to the kind of experiment: Retention time in (R)-PIA) induced avoidance test (performed in mice) for antagonistic activity after peroral administration of 0.31 mg/kg. The test is classed as functional, organism-based. More on the design: dose 0.31 mg/kg.
Test [23] concerns Mus musculus. As to the kind of experiment: Acquisition time in (R)-PIA) induced avoidance test (performed in mice) for antagonistic activity after p.o. administration of 0.31 mg/kg. The test is classed as functional. The conditions noted are these: route oral.
The subject of test [24] is Rattus norvegicus. As to the kind of experiment: Retention time in Scopolamine induced avoidance test (performed in rat) for antagonistic activity after peroral administration of 20 mg/kg. The format is functional, organism-based. Also on record: dose 20 mg/kg.
The target of another test is Adenosine A2 receptor (Homo sapiens, UniProt P29275+P29274). The test can be described thus: Binding affinity towards Adenosine A2 receptor of human platelets with [125I]-N6-aminobenzyladenosine.
In another test the target is T1, Adenosine receptor A1 (Bos taurus, UniProt P28190).
T1 sequence (P28190 whole entry): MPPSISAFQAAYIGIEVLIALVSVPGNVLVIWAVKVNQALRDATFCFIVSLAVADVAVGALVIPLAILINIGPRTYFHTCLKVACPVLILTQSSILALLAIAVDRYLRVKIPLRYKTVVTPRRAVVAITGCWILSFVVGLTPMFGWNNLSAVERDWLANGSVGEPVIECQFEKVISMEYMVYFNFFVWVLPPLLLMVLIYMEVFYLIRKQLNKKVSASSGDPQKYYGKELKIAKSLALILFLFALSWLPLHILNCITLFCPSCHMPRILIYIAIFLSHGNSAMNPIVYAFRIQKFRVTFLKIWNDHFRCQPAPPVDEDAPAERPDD
The test can be described thus: Binding affinity towards Adenosine A1 receptor of bovine brain at 10e-5 M with [125I]-N6-aminobenzyladenosine.

Test [25] has as its system Rattus norvegicus. As to the kind of experiment: Acquisition time in Scopolamine induced avoidance test (performed in rat) for antagonistic activity after p.o. administration of 0.31 mg/kg. The test is classed as functional. The conditions noted are these: route oral.
The test system of test [26] is Rattus norvegicus. As to the kind of experiment: Retention time in Scopolamine induced avoidance test (performed in rat) for antagonistic activity after p.o. administration of 0.31 mg/kg. The test is classed as functional, organism-based. Also on record: dose 0.31 mg/kg.
Test [27] concerns Mus musculus. The test can be described thus: Acquisition time in (R)-PIA) induced avoidance test (performed in mice) for antagonistic activity after peroral administration of 0.02 mg/kg. The conditions noted are these: route oral.

`CC(C)Cn1c(=O)n(C)c(=O)c2[nH]c(C(C3CC3)C3CC3)nc21`: the Retention time is 14.1 s in the test on Rattus norvegicus [1]; 22.8 s in the test with Rattus norvegicus [2]; 17.6 s in the test on Rattus norvegicus [5]; 50.9 s with Rattus norvegicus [8]; 349 s in the test on Mus musculus [10]; 17.6 s with Rattus norvegicus [12]. Besides, the Retention time with Mus musculus [13] amounted to 370 s; in the test on Rattus norvegicus [15], 9.9 s; with Mus musculus [17], 359 s; in the test on Mus musculus [19], 171 s. Further, the Acquisition time in the test on Rattus norvegicus [3] is reported as 10.1 s; with Rattus norvegicus [4], 9.6 s; with Rattus norvegicus [6], 11.8 s; in the test on Rattus norvegicus [7], 11.5 s; with Rattus norvegicus [9], 8.3 s; with Mus musculus [11] it was 26.4 s. In addition, the Acquisition time in the test on Mus musculus [14] is given as 25.7 s; in the test on Mus musculus [16], 12.5 s; with Rattus norvegicus [18] it was 7.1 s; with Mus musculus [20], 19.9 s.
The term Ki denotes a measure of affinity in units of concentration, obtained from inhibition or displacement. Low values mean higher affinity, high ones lower affinity. With `CCCn1c(=O)c2nc(C3CCCC3)[nH]c2n(CCc2ccc(NC(=O)C(C)C)cc2)c1=O`, the Retention time was 19.3 s in the test on Rattus norvegicus [2]; 10.7 s with Rattus norvegicus [5]; 9.4 s in the test on Mus musculus [21]; 88.6 s in the test on Mus musculus [22]; 171 s with Mus musculus [10]; 65.4 s in the test on Rattus norvegicus [24]. Besides, the Retention time in the test on Rattus norvegicus [15] came out at 20 s; with Rattus norvegicus [26], 18.6 s; with Mus musculus [17], 94.7 s; in the test on Mus musculus [19], 32.9 s. The Acquisition time in the test on Rattus norvegicus [4] turned out to be 9 s; with Rattus norvegicus [6], 6.6 s; in the test on Rattus norvegicus [7], 11.9 s; in the test on Mus musculus [23] it was 29.3 s; in the test with Rattus norvegicus [25] it was 10.1 s; with Mus musculus [14], 16 s. Also, the Acquisition time in the test on Mus musculus [16] came to 34.4 s; in the test with Rattus norvegicus [18], 10.1 s; in the test with Mus musculus [27], 6 s; with Mus musculus [20], 33.3 s. The Ki on Adenosine A2 receptor was over 100000 nM; on Adenosine receptor A1, 16 nM.
